Series [1] in a line: Effect of naltrexone on alcohol stimulation (BAES). Format: in vivo, human. The following applies: calculated from Ray et al. (Arch Gen Psychiatry 2007). The method, then:
No human studies have examined perampanel in psychiatric/substance-using populations. We calculated an effect size for naltrexone based on Ray et al. (Arch Gen Psychiatry. 2007; 64(9):1069-77), for the effect of naltrexone on stimulation (BAES) and will extrapolate this effect to perampanel. Based on this calculated effect size (d) of 0.45 (e.g. a moderate effect size), we should be able to show a significant difference between perampanel and placebo groups using a two-sided, […] t-test, with alpha=0.05 and power (1-Beta) of 0.80 with n=21 subjects in each experimental group (total N=42). We will recruit and enter N=50 subjects, in order to complete at least 42.

The conditions of series [2]: in vivo; cited from earlier work.
The test system of series [3] is AMPA receptor. The following applies: in vitro, rat hippocampal slices; cited from earlier work.
For series [4] the following is noted: in vivo; cited from earlier work. This is another data set of the same source.
A further series has as its target CYP3A4 (Homo sapiens, UniProt P08684). The following applies: cited from earlier work.
For series [5] the following is noted: cited from earlier work.
The conditions of series [6]: cited from earlier work. The source holds these as a separate data set.
The conditions of series [7]: cited from earlier work. The source holds these as a separate data set.
Series [8] concerns AMPA receptor. The following applies: animal spinal neurons; cited from earlier work.

Read-outs that look alike come from different tables or passages of the source.

Sequence of CYP3A4 (P08684 whole entry): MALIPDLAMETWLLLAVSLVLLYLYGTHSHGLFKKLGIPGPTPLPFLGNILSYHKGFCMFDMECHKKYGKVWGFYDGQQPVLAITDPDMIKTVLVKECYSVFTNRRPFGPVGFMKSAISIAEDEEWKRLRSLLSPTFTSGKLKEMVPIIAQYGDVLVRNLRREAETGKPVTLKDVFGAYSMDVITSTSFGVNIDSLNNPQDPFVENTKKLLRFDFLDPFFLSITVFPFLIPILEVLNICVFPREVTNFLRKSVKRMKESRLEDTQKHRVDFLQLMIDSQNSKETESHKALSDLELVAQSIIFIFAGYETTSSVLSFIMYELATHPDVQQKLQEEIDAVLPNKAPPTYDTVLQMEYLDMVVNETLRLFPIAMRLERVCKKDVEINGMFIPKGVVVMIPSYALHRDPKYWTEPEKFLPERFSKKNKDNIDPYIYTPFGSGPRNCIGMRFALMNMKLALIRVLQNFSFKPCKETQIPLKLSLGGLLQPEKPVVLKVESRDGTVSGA

With `O=C1CC[C@@]2(O)[C@H]3Cc4ccc(O)c5c4[C@@]2(CCN3CC2CC2)[C@H]1O5` [naltrexone], the “effect size (d) on stimulation (BAES)” value in series [1] is given as 0.45.

For `N#Cc1ccccc1-c1cc(-c2ccccn2)cn(-c2ccccc2)c1=O` [perampanel], in series [2], the bioavailability result is reported as “about 100%” and the pharmacokinetic linearity entry is given as “linear pharmacokinetics”. In the series with AMPA receptor [3], the “selectivity of action on the AMPA receptor” value was “selective action”. In [4], the blood-brain-barrier penetration result was “effectively penetrates the blood-brain-barrier”. The metabolising enzyme result at CYP3A4 is “primarily metabolized by CYP3A4”. In [5] (chronic dosing in epilepsy trials), the “medication related adverse events/side effects” value is “dizziness, somnolence, irritability, headache, fall, and ataxia”. Also, the tolerability result in series [5] (human subjects, doses of 8 mg or 12 mg daily) is given as “well tolerated”.

Turning to `CC(=O)N1N=C(c2ccc(N)cc2)c2cc3c(cc2C[C@H]1C)OCO3` [talampanel], in series [6] (healthy volunteers), the “elimination half-life T1/2” value was “approximately 4 hours”. In series [6] (orally active), the “absorption in the gastrointestinal system” value was “easily absorbed”. In [6] (post-ingestion), the “time to peak plasma concentration (Tmax)” value was “approximately 2 hours”. For the same compound, the “maximum tolerated single oral dose” value in [7] (healthy human subjects, single oral dose) is listed as 100 mg. Also, the “medication related adverse events/side effects” value in [7] (human, in vivo) was “dizziness, sedation, and ataxia”. For the same compound, the blood-brain-barrier penetration result in series [4] is recorded as “good blood-brain-barrier penetration”. In addition, in the series on AMPA receptor [8], the “selectivity of action on the AMPA receptor” value is listed as “selective action”.

Values taken from patent US20170173039A1, “COMPOSITIONS AND METHODS TO TREAT ADDICTION” (YALE UNIVERSITY, priority 2014, published 2017).
